Reference: patent US10988477B2 (Merck Patent GmbH, priority 2018, dated 2021)
pIC50, pKi: −log10 of the molar value.

Target: GCN2 kinase (Homo sapiens, UniProt Q9P2K8)
Test: GCN2 enzyme inhibition assay (Transcreener ADP2 fluorescence polarization)
Assay type: biochemical
Conditions: Enzyme activity for compounds of Formula IV; Ki(app), 280 μM ATP, 25° C.
How it was run: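 Run at 25 °C in 25 mM Tris-HCl pH 7.5, 50 mM NaCl, 10 mM MgCl2, 1 mM DTT with 4 nM GCN2, 280 μM ATP and 200 μM (RS)7 peptide; compound (0–8 μM final) preincubated 10 min, reaction 1 h. ADP read by antibody/tracer FP; IC50 and Ki(app) from tight-binding fit.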

Chain of GCN2 kinase (Q9P2K8 whole entry): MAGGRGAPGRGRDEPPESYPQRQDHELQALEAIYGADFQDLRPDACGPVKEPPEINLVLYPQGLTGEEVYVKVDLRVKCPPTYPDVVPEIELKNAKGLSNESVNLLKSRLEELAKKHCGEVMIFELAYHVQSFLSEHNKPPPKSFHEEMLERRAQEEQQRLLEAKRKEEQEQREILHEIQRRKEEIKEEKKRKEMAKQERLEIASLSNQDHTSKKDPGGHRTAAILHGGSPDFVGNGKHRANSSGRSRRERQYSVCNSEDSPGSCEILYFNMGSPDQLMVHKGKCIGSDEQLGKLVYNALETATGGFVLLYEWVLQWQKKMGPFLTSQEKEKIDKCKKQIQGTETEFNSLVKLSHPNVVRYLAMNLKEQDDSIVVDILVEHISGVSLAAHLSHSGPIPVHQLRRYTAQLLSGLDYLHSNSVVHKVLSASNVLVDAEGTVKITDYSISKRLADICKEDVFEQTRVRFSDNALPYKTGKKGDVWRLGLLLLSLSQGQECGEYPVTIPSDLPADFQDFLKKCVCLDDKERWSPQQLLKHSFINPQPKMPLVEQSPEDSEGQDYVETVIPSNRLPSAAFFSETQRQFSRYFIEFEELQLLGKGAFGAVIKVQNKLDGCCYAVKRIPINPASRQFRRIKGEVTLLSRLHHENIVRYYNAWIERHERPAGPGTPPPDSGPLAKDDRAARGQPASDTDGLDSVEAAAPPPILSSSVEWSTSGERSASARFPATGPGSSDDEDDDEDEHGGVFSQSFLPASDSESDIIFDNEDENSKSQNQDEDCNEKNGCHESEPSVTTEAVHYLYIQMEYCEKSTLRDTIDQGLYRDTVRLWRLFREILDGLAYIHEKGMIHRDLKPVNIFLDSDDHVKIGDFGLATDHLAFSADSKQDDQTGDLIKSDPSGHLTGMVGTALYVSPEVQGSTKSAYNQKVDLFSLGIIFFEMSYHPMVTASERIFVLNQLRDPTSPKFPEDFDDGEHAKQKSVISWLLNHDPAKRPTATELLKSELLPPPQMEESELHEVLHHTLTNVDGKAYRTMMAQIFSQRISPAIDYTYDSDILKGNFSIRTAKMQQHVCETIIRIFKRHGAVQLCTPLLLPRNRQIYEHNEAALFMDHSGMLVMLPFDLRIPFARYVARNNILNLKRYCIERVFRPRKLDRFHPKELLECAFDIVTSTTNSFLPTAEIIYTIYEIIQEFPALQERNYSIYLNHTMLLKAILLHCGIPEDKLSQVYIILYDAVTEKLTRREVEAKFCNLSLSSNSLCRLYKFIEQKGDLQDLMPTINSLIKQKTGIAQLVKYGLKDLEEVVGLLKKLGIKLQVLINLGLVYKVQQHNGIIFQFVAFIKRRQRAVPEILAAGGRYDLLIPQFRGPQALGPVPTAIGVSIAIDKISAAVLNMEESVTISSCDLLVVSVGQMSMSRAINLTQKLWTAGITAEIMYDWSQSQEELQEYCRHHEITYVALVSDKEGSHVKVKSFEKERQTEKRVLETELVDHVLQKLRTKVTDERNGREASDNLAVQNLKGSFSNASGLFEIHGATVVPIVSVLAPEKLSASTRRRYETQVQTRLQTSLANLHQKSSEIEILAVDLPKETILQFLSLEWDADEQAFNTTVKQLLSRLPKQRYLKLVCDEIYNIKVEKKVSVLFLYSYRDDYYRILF

Structure (SMILES) | pKi
C[C@@H]1CN(c2ccnc(-c3cnc4cnc(C(F)(F)F)cn34)n2)C[C@@H](c2c[nH]cn2)O1 (racemic) [IV-381, Trans-2-(1H-Imidazol-4-yl)-6-methyl-4-(2-(6-(trifluoromethyl)imidazo[1,2-a]pyrazin-3-yl)pyrimidin-4-yl)morpholine] | 7.00 to 8.00
CN1CCN(c2ccnc(-c3cnc4cnc(C(F)(F)F)cn34)n2)CC1 [IV-585, 3-(4-(4-Methylpiperazin-1-yl)pyrimidin-2-yl)-6-(trifluoromethyl)imidazo[1,2-a]pyrazine] | 6.00 to 7.00
CC(=O)N1CCN(c2ccnc(-c3cnc4cnc(-c5cccc(CO)c5)cn34)n2)CC1 [IV-308, 1-(4-(2-(6-(3-(Hydroxymethyl)phenyl)imidazo[1,2-a]pyrazin-3-yl)pyrimidin-4-yl)piperazin-1-yl)ethan-1-one] | 6.00 to 7.00
FC(F)(F)c1cn2c(-c3nccc(N4CCC(c5ccccc5)C4)n3)cnc2cn1 (centres unmarked) [IV-556, 3-(4-(3-Phenylpyrrolidin-1-yl)pyrimidin-2-yl)-6-(trifluoromethyl)imidazo[1,2-a]pyrazine] | 6.00 to 7.00
CC1CN(c2ccnc(-c3cnc4cnc(C#N)cn34)n2)C(C)C(c2cn[nH]c2)N1 (single isomer, unassigned) [IV-313, 3-(4-(2,5-Dimethyl-3-(1H-pyrazol-4-yl)piperazin-1-yl)pyrimidin-2-yl)imidazo[1,2-a]pyrazine-6-carbonitrile] | 6.00 to 7.00
O=C(N[C@@H]1CCCN(c2ccnc(-c3cnc4cnc(C(F)(F)F)cn34)n2)C1)c1cn[nH]c1 [IV-709] | 6.00 to 7.00
CC(C)C1CN(c2ccnc(-c3cnc4cnc(C(F)(F)F)cn34)n2)C(C)C(c2cn[nH]c2)N1 (centres unmarked) [IV-330, 3-(4-(5-Isopropyl-2-methyl-3-(1H-pyrazol-4-yl)piperazin-1-yl)pyrimidin-2-yl)-6-(trifluoromethyl)imidazo[1,2-a]pyrazine] | 7.00 to 8.00
CC(=O)N1CCN(c2ccnc(-c3cnc4cnc(-c5cccnc5)cn34)n2)CC1 [IV-289, 1-(4-(2-(6-(Pyridin-3-yl)imidazo[1,2-a]pyrazin-3-yl)pyrimidin-4-yl)piperazin-1-yl)ethan-1-one] | 6.00 to 7.00
NC(=O)CC1CCN(c2ccnc(-c3cnc4cnc(C(F)(F)F)cn34)n2)C1 (centres unmarked) [IV-432, 2-(1-(2-(6-(Trifluoromethyl)imidazo[1,2-a]pyrazin-3-yl)pyrimidin-4-yl)pyrrolidin-3-yl)acetamide] | 6.00 to 7.00
CC(=O)N1CCN(c2ccnc(-c3cnc4cnc(-c5cc[nH]n5)cn34)n2)CC1 [IV-203, 1-(4-(2-(6-(1H-Pyrazol-3-yl)imidazo[1,2-a]pyrazin-3-yl)pyrimidin-4-yl)piperazin-1-yl)ethan-1-one] | 7.00 to 8.00
CC(=O)N1CCN(c2ccnc(-c3cnc4cnc(C(N)=O)cn34)n2)CC1(C)C [IV-699, 3-(4-(4-Acetyl-3,3-dimethylpiperazin-1-yl)pyrimidin-2-yl)imidazo[1,2-a]pyrazine-6-carboxamide] | 6.00 to 7.00
FC(F)(F)c1cn2c(-c3nccc(N4CCCC(n5cncn5)C4)n3)cnc2cn1 (centres unmarked) [IV-547, 3-(4-(3-(1H-1,2,4-Triazol-1-yl)piperidin-1-yl)pyrimidin-2-yl)-6-(trifluoromethyl)imidazo[1,2-a]pyrazine] | 6.00 to 7.00
FC(F)(F)c1cn2c(-c3nccc(N4CCCC(c5ncno5)C4)n3)cnc2cn1 (centres unmarked) [IV-322, 5-(1-(2-(6-(Trifluoromethyl)imidazo[1,2-a]pyrazin-3-yl)pyrimidin-4-yl)piperidin-3-yl)-1,2,4-oxadiazole] | 6.00 to 7.00
NC(=O)c1cn2c(-c3nccc(N4CCOCC4)n3)cnc2cn1 [IV-240] | 6.00 to 7.00
N#CC1CN(c2ccnc(-c3cnc4cnc(C(N)=O)cn34)n2)CCC1=O (centres unmarked) [IV-253, 3-(4-(3-Cyano-4-oxopiperidin-1-yl)pyrimidin-2-yl)imidazo[1,2-a]pyrazine-6-carboxamide] | 7.00 to 8.00
NC(=O)c1cn2c(-c3nccc(N4CCN5CCCCC5C4)n3)cnc2cn1 (centres unmarked) [IV-265, 3-(4-(Octahydro-2H-pyrido[1,2-a]pyrazin-2-yl)pyrimidin-2-yl)imidazo[1,2-a]pyrazine-6-carboxamide] | 6.00 to 7.00
Cc1n[nH]c(C)c1C1CCCN(c2ccnc(-c3cnc4cnc(C(F)(F)F)cn34)n2)C1 (single isomer, unassigned) [IV-477, 3-(4-(3-(3,5-Dimethyl-1H-pyrazol-4-yl)piperidin-1-yl)pyrimidin-2-yl)-6-(trifluoromethyl)imidazo[1,2-a]pyrazine] | 7.00 to 8.00
CN1CC2(CCN(c3ccnc(-c4cnc5cnc(C(F)(F)F)cn45)n3)C2)OC1=O (centres unmarked) [IV-579, 3-Methyl-7-(2-(6-(trifluoromethyl)imidazo[1,2-a]pyrazin-3-yl)pyrimidin-4-yl)-1-oxa-3,7-diazaspiro[4.4]nonan-2-one] | 6.00 to 7.00
NC(C1CCCN(c2ccnc(-c3cnc4cnc(C(F)(F)F)cn34)n2)C1)C(F)(F)F (centres unmarked) [IV-502, 2,2,2-Trifluoro-1-(1-(2-(6-(trifluoromethyl)imidazo[1,2-a]pyrazin-3-yl)pyrimidin-4-yl)piperidin-3-yl)ethan-1-amine] | 6.00 to 7.00
CC1CCN(c2ccnc(-c3cnc4cnc(C(F)(F)F)cn34)n2)CC1n1ccnc1 (centres unmarked) [IV-319, 3-(4-(3-(1H-Imidazol-1-yl)-4-methylpiperidin-1-yl)pyrimidin-2-yl)-6-(trifluoromethyl)imidazo[1,2-a]pyrazine] | 6.00 to 7.00
CC(=O)NC1CCCN(c2ccnc(-c3cnc4cnc(C(N)=O)cn34)n2)C1 (centres unmarked) [IV-249, 3-(4-(3-Acetamidopiperidin-1-yl)pyrimidin-2-yl)imidazo[1,2-a]pyrazine-6-carboxamide] | 6.00 to 7.00

Same assay, conditions: compounds of Formula II; 280 μM ATP, 4 nM GCN2 kinase

Structure (SMILES) | pKi | pIC50
O=S1(=O)CCCC1C1CCCN(c2cc(-c3cnc4ccc(C(F)F)nn34)ncn2)C1 (centres unmarked) [II-563, 2-(1-(6-(6-(Difluoromethyl)imidazo[1,2-b]pyridazin-3-yl)pyrimidin-4-yl)piperidin-3-yl)tetrahydrothiophene 1,1-dioxide] | 6.00 to 8.00 | 
C[C@@H]1C[C@H](N=S(C)(C)=O)CN(c2cc(-c3cnc4ccc(N5CC(F)C5)nn34)ncn2)C1 [II-764, (((3S,5R)-1-(6-(6-(3-fluoroazetidin-1-yl)imidazo[1,2-b]pyridazin-3-yl)pyrimidin-4-yl)-5-methylpiperidin-3-yl)imino)dimethyl-16-sulfanone] |  | 6.00 to 8.00
OC[C@@H]1CCCN(c2cc(-c3cnc4ccc(C(F)(F)F)nn34)ncn2)C1 [II-517, (R)-(1-(6-(6-(Trifluoromethyl)imidazo[1,2-b]pyridazin-3-yl)pyrimidin-4-yl)piperidin-3-yl)methanol] | 6.00 to 8.00 | 
COCCN1CCN(c2cc(-c3cnc4ccc(C(F)F)nn34)ncn2)C(C)C1CNS(C)(=O)=O (centres unmarked) [II-494, N-((4-(6-(6-(Difluoromethyl)imidazo[1,2-b]pyridazin-3-yl)pyrimidin-4-yl)-1-(2-methoxyethyl)-3-methylpiperazin-2-yl)methyl)methanesulfonamide] | > 8.00 | 
CS(C)(=O)=NCc1cccc(-c2cc(-c3cnc4ccc(C(F)F)nn34)ncn2)c1 [II-595, ((3-(6-(6-(Difluoromethyl)imidazo[1,2-b]pyridazin-3-yl)pyrimidin-4-yl)benzyl)imino)dimethyl-λ^6-sulfanone] | 6.00 to 8.00 | 
CC1CC(CO)C(C)N(c2cc(-c3cnc4ccc(C(F)F)nn34)ncn2)C1 (single isomer, unassigned) [II-586, (1-(6-(6-(Difluoromethyl)imidazo[1,2-b]pyridazin-3-yl)pyrimidin-4-yl)-2,5-dimethylpiperidin-3-yl)methanol] | 6.00 to 8.00 | 
CC1C(CO)N(C(C)(C)C)CCN1c1cc(-c2cnc3ccc(C(F)F)nn23)ncn1 (centres unmarked) [II-556, (1-(tert-Butyl)-4-(6-(6-(difluoromethyl)imidazo[1,2-b]pyridazin-3-yl)pyrimidin-4-yl)-3-methylpiperazin-2-yl)methanol] | 6.00 to 8.00 | 
Cc1cc(CNS(C)(=O)=O)cc(-c2cc(-c3cnc4ccc(C(F)F)nn34)ncn2)c1 [II-612, N-(3-(6-(6-(Difluoromethyl)imidazo[1,2-b]pyridazin-3-yl)pyrimidin-4-yl)-5-methylbenzyl)methanesulfonamide] | > 8.00 | 
CC1CN(c2cc(-c3cnc4ccc(C(F)F)nn34)ncn2)CC(CO)O1 (centres unmarked) [II-615, (4-(6-(6-(Difluoromethyl)imidazo[1,2-b]pyridazin-3-yl)pyrimidin-4-yl)-6-methylmorpholin-2-yl)methanol] | 6.00 to 8.00 | 
CC1(C)CN(c2cc(-c3cnc4ccc(C(F)F)nn34)ncn2)CC(CNS(C)(=O)=O)N1 (centres unmarked) [II-569, N-((4-(6-(6-(Difluoromethyl)imidazo[1,2-b]pyridazin-3-yl)pyrimidin-4-yl)-6,6-dimethylpiperazin-2-yl)methyl)methanesulfonamide] | 6.00 to 8.00 | 
CC(C)C(C)(O)C1CCCN(c2cc(-c3cnc4ccc(C(F)F)nn34)ncn2)C1 (centres unmarked) [II-621, 2-(1-(6-(6-(Difluoromethyl)imidazo[1,2-b]pyridazin-3-yl)pyrimidin-4-yl)piperidin-3-yl)-3-methylbutan-2-ol] | 6.00 to 8.00 | 
Cc1nn(C)cc1[C@H]1CN(c2cc(-c3cnc4ccc(C(F)(F)F)nn34)ncn2)C[C@H](C)O1 [II-758, (2S,6S)-2-(1,3-dimethyl-1H-pyrazol-4-yl)-6-methyl-4-(6-(6-(trifluoromethyl)imidazo[1,2-b]pyridazin-3-yl)pyrimidin-4-yl)morpholine] |  | < 6.00

Same assay, conditions: compounds of Formula IV; 280 μM ATP, 4 nM GCN2 kinase

Structure (SMILES) | pIC50
C[C@@H]1C[C@H](N=S(C)(C)=O)CN(c2ccnc(-c3cnc4cnc(Cl)cn34)n2)C1 [IV-773, (((3S,5R)-1-(2-(6-chloroimidazo[1,2-a]pyrazin-3-yl)pyrimidin-4-yl)-5-methylpiperidin-3-yl)imino)dimethyl-16-sulfanone] | 6.00 to 8.00

Same assay, conditions: compounds of Formula V; 280 μM ATP, 4 nM GCN2 kinase

Structure (SMILES) | pKi
C[C@@H]1CN(c2ccnc(-c3cnc4sc(C(F)F)cn34)n2)C[C@H](CNS(C)(=O)=O)C1(F)F (stereo in doubt) [Compound V-2, N-((-1-(2-(2-(difluoromethyl)imidazo[2,1-b]thiazol-5-yl)pyrimidin-4-yl)-4,4-difluoro-5-methylpiperidin-3-yl)methyl)methanesulfonamide] | 6.00 to 7.00
